In patent publication US7238716B2, “Alkanoic acid derivatives process for their production and use thereof” (Takeda Pharmaceuticals Company Limited, priority 2000, dated 2007):

How the values were obtained:
PPARγ-RXRα heterodimer = target: T1, PPARγ-RXRα heterodimer (Homo sapiens, UniProt P37231); experiment: PPARγ-RXRα heterodimer ligand activity, luciferase reporter in PPARγ:RXRα:4ERPP/CHO-K1 cells (Test Example 3); type: cell-based; settings: concentration for 50% of the maximum fold induction of luciferase activity; 48 hours, CHO-K1 cells
T1 construct: expressed in transfected cells; host or cells: CHO-K1
T1 sequence (P37231 1-477 isoform P37231-2): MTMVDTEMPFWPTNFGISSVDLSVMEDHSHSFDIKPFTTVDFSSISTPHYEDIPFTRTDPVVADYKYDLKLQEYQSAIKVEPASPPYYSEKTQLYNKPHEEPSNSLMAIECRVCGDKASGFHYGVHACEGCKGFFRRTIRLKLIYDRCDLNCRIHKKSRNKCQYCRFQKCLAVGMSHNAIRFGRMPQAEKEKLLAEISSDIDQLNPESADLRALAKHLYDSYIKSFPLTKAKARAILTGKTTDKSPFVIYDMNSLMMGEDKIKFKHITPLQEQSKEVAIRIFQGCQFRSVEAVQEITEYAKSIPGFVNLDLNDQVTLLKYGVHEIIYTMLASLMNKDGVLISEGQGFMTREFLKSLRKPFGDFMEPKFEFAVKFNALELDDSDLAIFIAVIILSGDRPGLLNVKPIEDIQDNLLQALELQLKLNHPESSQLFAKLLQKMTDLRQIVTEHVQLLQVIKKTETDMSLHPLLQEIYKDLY
T1 sequence (P19793 1-462 partner): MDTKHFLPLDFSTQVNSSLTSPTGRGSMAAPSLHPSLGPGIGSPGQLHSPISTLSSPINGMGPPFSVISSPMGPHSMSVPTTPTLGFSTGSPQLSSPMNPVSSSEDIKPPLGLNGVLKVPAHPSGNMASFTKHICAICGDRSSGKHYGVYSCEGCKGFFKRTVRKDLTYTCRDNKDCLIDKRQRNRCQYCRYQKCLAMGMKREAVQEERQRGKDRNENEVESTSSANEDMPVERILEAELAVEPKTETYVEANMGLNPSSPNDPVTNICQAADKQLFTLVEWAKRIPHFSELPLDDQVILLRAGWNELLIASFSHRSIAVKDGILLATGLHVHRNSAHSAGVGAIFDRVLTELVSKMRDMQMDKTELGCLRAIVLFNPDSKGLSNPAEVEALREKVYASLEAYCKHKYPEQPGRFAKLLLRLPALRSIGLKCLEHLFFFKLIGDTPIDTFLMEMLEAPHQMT
Method: A PPARγ:RXRα:4ERPP/CHO-K1 cells obtained in Reference Example 5 described later were cultured in HAM F12 medium (produced by NISSUI SEIYAKU) containing 10% Fetal bovine serum (produced by Life Technologies, Inc., USA) and then inoculated to a 96-well white plate (produced by Corning Costar Corporation, USA) at the density of 2×10^4 cells/well, and cultured in a CO2 gas incubator at 37° C. overnight.
After washing the 96 well white plate with PBS (Phosphate-buffered saline), 90 μl of HAM F12 medium containing 0.1% fatty acid-free bovine serum albumin (BSA) and 10 μl of test compound were added, which was cultured in a CO2 gas incubator at 37° C. for 48 hours. After removing the medium, 40 μl of PIKKAGENE 7.5 (produced by Wako Pure Chemical Industries, Ltd.) was added. After stirring, the luciferase activity was determined using Lumistar (produced by BMG Labtechnologies GmbH, Germany).
A fold induction was calculated based on the luciferase activity of each test compound by taking the luciferase activity in the test compound non administration group as 1. The values of the test compound, concentration and the fold induction were analyzed using PRISM 2.01 (produced by GraphPad Software Inc. USA) to calculate the EC50 values, the effective concentration of a test compound for 50% of the maximum fold induction.
After a CHO-K1 cell cultured in a 750 ml tissue culture flask (produced by Corning-Costar Corporation, USA) containing HAM F12 medium (produced by NISSUI SEIYAKU) supplemented with 10% Fetal Bovine Serum (produced by Life Technologies, Inc., USA) was scraped by treating with 0.5 g/L trypsin-0.2 g/L EDTA (ethylenediaminetetraacetic acid) (produced by Life Technologies, Inc., USA), the cell was washed with PBS (phosphate buffered saline) (produced by Life Technologies, Inc., USA), centrifuged (1000 rpm, 5 minutes), and then suspended in PBS. Subsequently, a DNA was introduced into the cell under the condition shown below using GENE PULSER (produced by Bio-Rad Laboratories, USA).
Namely, to a cuvette having a 0.4 cm gap, added were 8×10^6 cells and 10 μg of plasmid pVgRXR2-hPPARγ obtained in Reference Example 3 and 10 μg of reporter plasmid pGL3-4ERPP-TK neo obtained in Reference Example 4, which was subjected to electroporation at the voltage of 0.25 kV under the capacitance of 960 μF. Subsequently, the cell was transferred into a HAM F12 medium containing 10% Fetal Bovine. Serum and cultured for 24 hours. Then the cell was scraped again and centrifuged, and then suspended in HAM F12 medium containing 10% Fetal Bovine Serum supplemented with 500 μg/ml of GENETICIN (produced by Life Technologies, Inc., USA) and 250 μg/ml of ZEOCIN (produced by Invitrogen, USA). The suspension was diluted to the density of 10^4 cells/ml, and inoculated to a 96-well plate (produced by Corning Costar Corporation, USA), which was cultured in a CO2 gas incubator at 37° C., whereby obtaining a GENETICIN- and ZEOCIN-resistant transformant.
Subsequently, after the transformant cell line thus obtained was cultured in a 24-well plate (produced by Corning Costar Corporation, USA), selected was a cell line, PPARγ:RXRα:4ERPP/CHO-K1 cell, in which the luciferase was expressed and induced by addition of 10 μM pioglitazone hydrochloride.

SMILES	EC50 (PPARγ-RXRα heterodimer)	melting point
Cc1oc(-c2ccccc2)nc1COc1ccc(COc2cccc(CC(=O)O)c2)cc1 [Example 1, 2-[3-[4-[(5-methyl-2-phenyl-4-oxazolyl)methoxy]benzyloxy]phenyl]acetic acid]	290 nM	159 to 160 °C
CCOc1ccc(OCc2ccc(OCc3nc(-c4ccccc4)oc3C)cc2)cc1CCC(=O)O [Example 7, 3-[2-ethoxy-5-[4-[(5-methyl-2-phenyl-4-oxazolyl)methoxy]benzyloxy]phenyl]propionic acid]	36 nM	129 to 130 °C
Cc1oc(-c2ccccc2)nc1COc1ccc(COc2ccccc2CC(=O)O)cc1 [Example 11, 2-[2-[4-[(5-methyl-2-phenyl-4-oxazolyl)methoxy]benzyloxy]phenyl]acetic acid]	62 nM	153 to 154 °C
Cc1ccc(OCc2ccc(OCc3nc(-c4ccccc4)oc3C)cc2)c(CC(=O)O)c1 [Example 15, 2-[5-methyl-2-[4-[(5-methyl-2-phenyl-4-oxazolyl)methoxy]benzyloxy]phenyl]acetic acid]	200 nM	115 to 116 °C
Cc1oc(-c2ccccc2)nc1COc1ccc(COc2ccc(Cl)cc2CC(=O)O)cc1 [Example 18, 2-[5-chloro-2-[4-[(5-methyl-2-phenyl-4-oxazolyl)methoxy]benzyloxy]phenyl]acetic acid]	2900 nM	160 to 161 °C
COc1ccc(OCc2ccc(OCc3nc(-c4ccccc4)oc3C)cc2)c(CC(=O)O)c1 [Example 24, 2-[5-methoxy-2-[4-[(5-methyl-2-phenyl-4-oxazolyl)methoxy]benzyloxy]phenyl]acetic acid]	160 nM	134 to 136 °C
CCOc1ccc(OCc2ccc(OCc3nc(-c4ccccc4)oc3C)cc2)c(CC(=O)O)c1 [Example 26, 2-[5-ethoxy-2-[4-[(5-methyl-2-phenyl-4-oxazolyl)methoxy]benzyloxy]phenyl]acetic acid]	35 nM	122 to 123 °C
CCOc1ccc(OCc2ccc(OCc3nc(-c4ccccc4)oc3C)cc2)c(CCC(=O)O)c1 [Example 29, 3-[5-ethoxy-2-[4-[(5-methyl-2-phenyl-4-oxazolyl)methoxy]benzyloxy]phenyl]propionic acid]	25 nM	115 to 116 °C
Cc1oc(-c2ccccc2)nc1COc1cccc(COc2cccc(CC(=O)O)c2)c1 [Example 32, 2-[[3-[3-(5-methyl-2-phenyl-4-oxazolyl)methoxy]benzyloxy]phenyl]acetic acid]	77 nM	101 to 102 °C
Cc1oc(-c2ccccc2)nc1COc1ccc(COc2ncccc2CC(=O)O)cc1 [Example 36, 2-[2-[4-[(5-methyl-2-phenyl-4-oxazolyl)methoxy]benzyloxy]-3-pyridyl]acetic acid]	33 nM	144 to 145 °C
Cc1oc(-c2ccccc2)nc1COc1ccc(COc2cccnc2CC(=O)O)cc1 [Example 37, 2-[3-[4-[(5-methyl-2-phenyl-4-oxazolyl)methoxy]benzyloxy]-2-pyridyl]acetic acid]	610 nM	115 to 116 °C (dec.)
Cc1oc(-c2ccccc2)nc1COc1ccc(COc2ccccc2CC(=O)O)cn1 [Example 41, 2-[2-[[6-[(5-methyl-2-phenyl-4-oxazolyl)methoxy]-3-pyridyl]methoxy]phenyl]acetic acid]	15 nM	123 to 125 °C
COc1cc(COc2ccccc2CC(=O)O)ccc1OCc1nc(-c2ccccc2)oc1C [Example 48, 2-[2-[3-methoxy-4-[(2-phenyl-5-methyl-4-oxazolyl)methoxy]benzyloxy]phenyl]acetic acid]	18 nM	165 to 166 °C
Cc1oc(-c2ccco2)nc1COc1ccc(COc2ccccc2CC(=O)O)cc1 [Example 50, 2-[2-[4-[[2-(2-furyl)-5-methyl-4-oxazolyl]methoxy]benzyloxy]phenyl]acetic acid]	180 nM	167 to 168 °C
O=C(O)Cc1ccccc1OCc1ccc(OCc2csc(-c3ccccc3)n2)cc1 [Example 51, 2-[2-[4-[(2-phenyl-4-thiazolyl)methoxy]benzyloxy]phenyl]acetic acid]	1200 nM	115 to 116 °C
Cc1sc(-c2ccccc2)nc1COc1ccc(COc2ccccc2CC(=O)O)cc1 [Example 52, 2-[2-[4-[(5-methyl-2-phenyl-4-thiazolyl)methoxy]benzyloxy]phenyl]acetic acid]	230 nM	122 to 123 °C
Cc1oc(-c2ccccc2)nc1CCOc1ccc(COc2ccccc2CC(=O)O)cc1 [Example 58, 2-[2-[4-[2-(5-methyl-2-phenyl-4-oxazolyl)ethoxy]benzyloxy]phenyl]acetic acid]	120 nM	141 to 142 °C
Cc1oc(-c2ccccc2)nc1COc1cc(COc2cccc(CC(=O)O)c2)ccn1 [Example 62, 2-[3-[2-[(5-methyl-2-phenyl-4-oxazolyl)methoxy]-4-pyridylmethoxy]phenyl]acetic acid]	20 nM	148 to 149 °C
Cc1oc(-c2ccccc2)nc1COc1cc(COc2ccccc2CC(=O)O)on1 [Example 79, 2-[2-[3-(5-methyl-2-phenyl-4-oxazolylmethoxy)-5-isoxazoly]methoxylphenyl]acetic acid]	9.2 nM	152 to 153 °C
Cc1oc(-c2ccccc2)nc1COc1ccc(COc2ncccc2CC(=O)O)cn1 [Example 88, 2-[2-[[6-[(5-methyl-2-phenyl-4-oxazolyl)methoxy]-3-pyridyl]methoxy]-3-pyridyl]acetic acid]	7.1 nM	147 to 148 °C
COc1cc(COc2ncccc2CC(=O)O)ccc1OCc1nc(-c2ccccc2)oc1C [Example 91, 2-[2-[3-methoxy-4-[(2-phenyl-5-methyl-4-oxazolyl)methoxy]benzyloxy]-3-pyridyl]acetic acid]	1.7 nM	145 to 146 °C
Cc1oc(-c2ccco2)nc1COc1ccc(COc2ncccc2CC(=O)O)cc1 [Example 92, 2-[2-[4-[[2-(2-furyl)-5-methyl-4-oxazolyl]methoxy]benzyloxy]-3-pyridyl]acetic acid]	370 nM	151 to 152 °C
